In patent publication US20180155757A1, “IDENTIFICATION OF BACTERIA THAT ARE RESISTANT TO CARBAPENEMS BY MEMBRANE IMPERVIOUSNESS” (BIOMÉRIEUX, priority 2015, published 2018):
Like-named read-outs stand apart in the source and are kept apart here.

Experiments:
Assay in all cases: Etest MIC of indicator carbapenems on MH II agar without/with PMBN
Type in all cases: cell-based
[1] = system: K. pneumoniae 1204036 (membrane impermeability)
Description: (§1) The determinations of antibiotic MIC were carried out on solid culture media with the Etest® method. To do this, Etest® strips (bioMérieux, France) were used: • Etest® Imipenem IM 32, and • Etest® Ertapenem ETP 32, and also solid culture media, differing from one another by virtue of their non-inhibitory concentrations of PMBN.
(§2) These solid culture media are prepared in Petri dishes (0=145 mm; V=50 ml) on a base of MH II Agar (Becton Dickinson®, United States), more or less supplemented with PMBN. The PMBN concentrations range from 0 up to concentrations equivalent to one fifth of the MIC of PMBN (⅕ MICPMBN).
(§3) Using a swab and the Retro C80™ rota-plater (bioMérieux, France), the culture media were inoculated with the bacteria, originating from an inoculum of 0.5 McFarland, prepared in 0.85% NaCl solution from colonies subcultured the day before on MH II agar.
(§4) The various Etest® strips are then deposited on the surface of the culture media. After 16 to 20 hours of incubation at 35° C., the MICS were read.
(§5) By way of indicator carbapenems according to the invention, in addition to imipenem (IM) and ertapenem (ETP), meropenem (MP) was also tested. Like the other two antibiotics, meropenem was used in the form of Etest® strips (Etest® Meropenem MP 32 from the company bioMérieux, France).
(§6) The methods used to prepare the new culture media and to carry out the antibiotic-sensitivity tests are identical to those described above.

[2] = system: Enterobacter aerogenes EA 5 (porin−); settings: Klebsiella aerogenes, E. aerogenes EA 5 (porin−)
Description: as §1, §2, §3, §4, §5, §6

[3] = system: E. cloacae 1008080 (IMP producer); settings: in µg/mL
Description: as §1, §2, §3, §4, §5, §6

[4] = system: K. pneumoniae 1103183 (NDM producer)
Description: as §1, §2, §3, §4, §5, §6

[5] = system: K. pneumoniae KP 63 (porin−); settings: Klebsiella pneumoniae
Description: as §1, §2, §3, §4, §5, §6

[6] = system: E. cloacae 1204056 (membrane impermeability)
Description: as §1, §2, §3, §4, §5, §6

[7] = system: E. coli 1204043
Description: as §1, §2, §3, §4
(§7) To do this, imipenem and ertapenem were used as indicator carbapenems. Non-inhibitory concentrations of PMBN, equivalent to concentrations of one tenth ( 1/10), one eighth (⅛) and one fifth (⅕) of the MIC of PMBN, were applied.
(§8) In the light of the MICPMBN values previously identified, very predominantly much higher than 300 μg/ml, the following standard concentrations were retained and applied to the bacterial strains to be tested: 50, 100, 150, 200 and 300 μg/ml.
as §5, §6

[8] = system: K. pneumoniae 1002015; settings: Klebsiella pneumoniae, 1002015, K. pneumoniae 1002015 (porin−), Table 4, read-out: MIC
Description: as §1, §2, §3, §4, §7, §8, §5, §6

[9] = system: E. cloacae 9402034; settings: E. cloacae 9402034 (membrane impermeability), Table 4a
Description: as §1, §2, §3, §4, §7, §8, §5, §6

[10] = system: E. aerogenes 9306071; settings: E. aerogenes 9306071 (membrane impermeability), Table 4a
Description: as §1, §2, §3, §4, §7, §8, §5, §6

[11] = system: E. aerogenes 9203076
Description: as §1, §2, §3, §4, §7, §8, §5, §6

[12] = system: K. pneumoniae 1204034
Description: as §1, §2, §3, §4, §7, §8, §5, §6

[13] = system: E. aerogenes 1204048; settings: E. aerogenes 1204048 (membrane impermeability), Table 4a, in µg/mL
Description: as §1, §2, §3, §4, §7, §8, §5, §6

C[C@@H](O)[C@H]1C(=O)N2C(C(=O)O)=C(S[C@@H]3CN[C@H](C(=O)N(C)C)C3)[C@H](C)[C@H]12 [MP, meropenem]
MIC ([1]; [PMBN] 0, Table 4a): 32 µg/mL | MIC ([1]; [PMBN] 100, Table 4a): 16 µg/mL | MIC ([1]; [PMBN] 200, Table 4a): 6 µg/mL | MIC ([1]; [PMBN] 300, Table 4a): 4 µg/mL | MIC ([2]; [PMBN] 0, Table 4): 3 µg/mL | MIC ([2]; [PMBN] 50 μg/ml): 2 µg/mL | MIC ([2]; [PMBN] 100 μg/ml): 1.5 µg/mL | MIC ([2]; [PMBN] 150 μg/ml): 0.75 µg/mL | MIC ([2]; [PMBN] 200 μg/ml): 0.75 µg/mL | MIC ([3]; [PMBN] 0, Table 4a): 2 | MIC ([3]; [PMBN] 100, Table 4a): 8 | MIC ([3]; [PMBN] 200, Table 4a): 6 | MIC ([3]; [PMBN] 300, Table 4a): 4-6 | MIC ([4]; [PMBN] 0, Table 4a): > 32 µg/mL | MIC ([4]; [PMBN] 100, Table 4a): > 32 µg/mL | MIC ([4]; [PMBN] 200, Table 4a): 24 µg/mL | MIC ([4]; [PMBN] 300, Table 4a): > 32 µg/mL | MIC ([5]; [PMBN] 0): 0.25 µg/mL | MIC ([5]; [PMBN] 50 μg/ml): 0.25 µg/mL | MIC ([5]; [PMBN] 100 μg/ml): 0.094 µg/mL | MIC ([5]; [PMBN] 150 μg/ml): 0.064 µg/mL | MIC ([5]; [PMBN] 200 μg/ml): 0.023 µg/mL | MIC ([6]; [PMBN] 0, Table 4a): 12 µg/mL | MIC ([6]; [PMBN] 100, Table 4a): 2 µg/mL | MIC ([6]; [PMBN] 200, Table 4a): 1 µg/mL | MIC ([6]; [PMBN] 300, Table 4a): 0.75 µg/mL | MIC ([7]; E. coli 1204043 (membrane impermeability), [PMBN] 0, Table 4a, in µg/mL): 4 | MIC ([7]; E. coli 1204043 (membrane impermeability), [PMBN] 100, Table 4a, in µg/mL): 0.75 | MIC ([7]; E. coli 1204043 (membrane impermeability), [PMBN] 200, Table 4a, in µg/mL): 0.38 | MIC ([7]; E. coli 1204043 (membrane impermeability), [PMBN] 300, Table 4a, in µg/mL): 0.19 | MIC ([7]; Escherichia coli, 1204043, E. coli 1204043 (porin−), [PMBN] 0, Table 4, read-out: MIC): 3 µg/mL | MIC ([7]; Escherichia coli, 1204043, E. coli 1204043 (porin−), [PMBN] 150 μg/ml, Table 4, read-out: MIC): 0.064 µg/mL | MIC ([7]; Escherichia coli, 1204043, E. coli 1204043 (porin−), [PMBN] 200 μg/ml, Table 4, read-out: MIC): 0.008 µg/mL | MIC ([8]; [PMBN] 0): 2 µg/mL | MIC ([8]; [PMBN] 150 μg/ml): 0.19 µg/mL | MIC ([8]; [PMBN] 200 μg/ml): 0.19 µg/mL | MIC ([9]; [PMBN] 0): 16 µg/mL | MIC ([9]; [PMBN] 100): 2 µg/mL | MIC ([9]; [PMBN] 200): 2 µg/mL | MIC ([9]; [PMBN] 300): 3 µg/mL | MIC ([10]; [PMBN] 0): 4 µg/mL | MIC ([10]; [PMBN] 100): 1.5 µg/mL | MIC ([10]; [PMBN] 200): 1.5 µg/mL | MIC ([10]; [PMBN] 300): 0.5 µg/mL | MIC ([11]; E. aerogenes 9203076 (membrane impermeability), [PMBN] 0, Table 4a, in µg/mL): 4 | MIC ([11]; E. aerogenes 9203076 (membrane impermeability), [PMBN] 100, Table 4a, in µg/mL): 2 | MIC ([11]; E. aerogenes 9203076 (membrane impermeability), [PMBN] 200, Table 4a, in µg/mL): 1.5 | MIC ([11]; E. aerogenes 9203076 (membrane impermeability), [PMBN] 300, Table 4a, in µg/mL): 0.5-0.75 | MIC ([11]; Klebsiella aerogenes, 9203076, E. aerogenes 9203076 (porin−), [PMBN] 0, Table 4, read-out: MIC): 4 µg/mL | MIC ([11]; Klebsiella aerogenes, 9203076, E. aerogenes 9203076 (porin−), [PMBN] 150 μg/ml, Table 4, read-out: MIC): 0.5 µg/mL | MIC ([11]; Klebsiella aerogenes, 9203076, E. aerogenes 9203076 (porin−), [PMBN] 200 μg/ml, Table 4, read-out: MIC): 0.5 µg/mL | MIC ([12]; K. pneumoniae 1204034 (membrane impermeability), [PMBN] 0, Table 4a): 16 µg/mL | MIC ([12]; K. pneumoniae 1204034 (membrane impermeability), [PMBN] 100, Table 4a): 1.5 µg/mL | MIC ([12]; K. pneumoniae 1204034 (membrane impermeability), [PMBN] 200, Table 4a): 0.75 µg/mL | MIC ([12]; K. pneumoniae 1204034 (membrane impermeability), [PMBN] 300, Table 4a): 0.38 µg/mL | MIC ([12]; Klebsiella pneumoniae, 1204034, K. pneumoniae 1204034 (porin−), [PMBN] 0, Table 4, read-out: MIC): 12 µg/mL | MIC ([12]; Klebsiella pneumoniae, 1204034, K. pneumoniae 1204034 (porin−), [PMBN] 150 μg/ml, Table 4, read-out: MIC): 0.5 µg/mL | MIC ([12]; Klebsiella pneumoniae, 1204034, K. pneumoniae 1204034 (porin−), [PMBN] 200 μg/ml, Table 4, read-out: MIC): 0.25 µg/mL | MIC ([13]; [PMBN] 0): >32 | MIC ([13]; [PMBN] 100): 1.5 | MIC ([13]; [PMBN] 200): 1 | MIC ([13]; [PMBN] 300): 0.5-1
